For one data set, the system named is 12-LOX. The following applies: in words; cited from earlier work.
The next data set is described as follows: Aqueous solubility. The following applies: for solubility in water: in words. The class given is physicochemical.
Data set [1] in a line: Solubility of Compound 1 in organic solvents relevant to spray drying (Table 3). Particulars: for solubility: organic solvent or mixture, read-out: Solubility Concentration. The data set is classed as physicochemical. The procedure:
THF was the most suitable solvent, and could be combined with other solvents such as acetone, ethanol and water to enable dissolution of the drug, polymer and additives in the formulation. Furthermore, given the anticipated dose of the product, maximizing the drug loading in the amorphous dispersion was essential.
Solubility in organic solvents relevant to spray draying were conducted ([…]), showing that THF with EtOH in water was preferred (85/10/5).

Data set [2] is described as follows: Oral bioavailability of Compound 1 suspension in mice. The following applies: mouse, in vivo, suspension in 0.5% methylcellulose. From the text:
While this vehicle is sufficient for short term efficacy studies, the inventors needed a more robust and clinically relevant formulation for the longer dosing regimens required for mouse efficacy models.

Data set [3] in a line: Rat PK of Compound 1, IV and oral suspension (Table 1). Set-up: species or system rats. Particulars: in vivo; for bioavailability: po, rats. The text has this:
The intravenous formulation uses cyclodextrin (CD) to increase solubility. However, a drug loading of <10% is not suitable for oral formulation. The inventors explored a new approach to oral formulation without guidance from the art including lipid solubility screening in various non-aqueous vehicles, self micro-emulsifying systems with oils, surfactants, and co-surfactants, amorphous solid dispersions via hot melt and spray drying, micronization, and in silico screen of supercritical fluid nanoparticle engineering. […] The pharmaceutical acceptable carrier can be a polymer.

Data set [4] can be described thus: Rat PK of Compound 1, IV and oral solution (Table 2). The class given is in vivo, rats. The text has this:
The intravenous formulation uses cyclodextrin (CD) to increase solubility. […] The inventors explored a new approach to oral formulation without guidance from the art including lipid solubility screening in various non-aqueous vehicles, self micro-emulsifying systems with oils, surfactants, and co-surfactants, amorphous solid dispersions via hot melt and spray drying, micronization, and in silico screen of supercritical fluid nanoparticle engineering. […] The pharmaceutical acceptable carrier can be a polymer.

The structures appear in SMILES notation. Converted amounts (≈) assume the structure as drawn. Like-named read-outs stand apart in the source and are kept apart here.

As to `COc1cccc(CNc2ccc(S(=O)(=O)Nc3cccc(C(C)C)c3)cc2)c1O` [Compound 3, 4-((2-hydroxy-3-methoxybenzyl)amino)-N-(3-isopropylphenyl)benzenesulfonamide], in the data set on 12-LOX, the 12-LOX inhibitor selectivity entry was “selective” and the 12-LOX inhibitory potency entry is given as “highly potent”. For the same molecule, the solubility in water entry in “Aqueous solubility” is on record as “poor solubility in water”.
Regarding `COc1cccc(CNc2ccc(S(=O)(=O)Nc3nc4ccccc4o3)cc2)c1O` [Compound 2, N-(benzo[d]oxazol-2-yl)-4-((2-hydroxy-3-methoxybenzyl)amino)benzenesulfonamide], in the data set on 12-LOX, the 12-LOX inhibitor selectivity result is listed as “selective” and the 12-LOX inhibitory potency entry is given as “highly potent”. Moreover, the solubility in water entry in “Aqueous solubility” was “poor solubility in water”.
The term bioavailability denotes the share of a dose that reaches the circulation, judged against a reference dose that is usually intravenous. The AUC(0-inf) is total exposure, with the tail of the curve extrapolated. Low values mean less exposure, high ones more exposure. A word on the AUC(0-t): it is exposure summed from dosing to a finite time, without extrapolation to infinity. For orientation: Cmax means the peak of the concentration-time curve. As usually defined, the Tmax is the time at which the peak concentration occurs. As a reminder, the half-life is the time needed for the level to fall by half in the phase considered. High values mean slow loss, low ones fast loss. As for `COc1cccc(CNc2ccc(S(=O)(=O)Nc3nc4ccccc4s3)cc2)c1O` [Compound 1, N-(benzo[d]thiazol-2-yl)-4-((2-hydroxy-3-methoxybenzyl)amino)benzenesulfonamide], the 12-LOX inhibitory potency result with 12-LOX is on record as “highly potent”. Further, the Soluble result was “Yes” in data set [1] (50:45:5 Tetrahydrofuran:Acetone:Water); “No” in data set [1] (50:50 Acetone:Methanol); “No” in data set [1] (50:50 Methylene Chloride:Methanol); “Yes” in data set [1] (85:10:5 Tetrahydrofuran:Ethanol:Water); “Yes” in data set [1] (95:5 Tetrahydrofuran:Water). In addition, the solubility is 10000 µg/mL (≈ 22.6 mM) in data set [1] (50:45:5 tetrahydrofuran:acetone:water); below 2500 µg/mL in data set [1] (50:50 acetone:methanol); below 2500 µg/mL in data set [1] (50:50 methylene chloride:methanol); 10000 µg/mL (≈ 22.6 mM) in data set [1] (85:10:5 tetrahydrofuran:ethanol:water); 10000 µg/mL (≈ 22.6 mM) in data set [1] (95:5 tetrahydrofuran:water). For the same molecule, in data set [1] (majority of solvents, in words), the “solubilization by solvents utilized in the prior art” value is “did not solubilize Compound 1 to an adequate level”. Further, the bioavailability in data set [2] is below 5%; in data set [3] (suspension dosing, read-out: Bioavailability) it was below 0.5%; in data set [3] (suspension in 0.5% methylcellulose, read-out: oral bioavailability), below 5%; in data set [4] (in vivo, po, 30 mg/kg, PO solution, 30 mg/Kg, read-out: F (bioavailability, fraction absorbed)), 3%. Besides, the AUC(0-inf) was found to be 43600 ng·h/mL in data set [3] (IV, 3 mg/kg); 100000 ng·h/mL in data set [3] (IV, 10 mg/kg); 214000 ng·h/mL in data set [3] (IV, 30 mg/kg); 237 ng·h/mL in data set [3] (oral suspension, 3 mg/kg); 478 ng·h/mL in data set [3] (oral suspension, 10 mg/kg); 768 ng·h/mL in data set [3] (oral suspension, 30 mg/kg). The exposure AUC(0-t) is 43600 ng·h/mL in data set [3] (IV, 3 mg/kg); 100000 ng·h/mL in data set [3] (IV, 10 mg/kg); 213000 ng·h/mL in data set [3] (IV, 30 mg/kg); 203 ng·h/mL in data set [3] (oral suspension, 3 mg/kg); 399 ng·h/mL in data set [3] (oral suspension, 10 mg/kg); 737 ng·h/mL in data set [3] (oral suspension, 30 mg/kg). The AUC(0-t) in data set [4] (in vivo, IV, 3 mg/Kg) came out at 50700 ng·h/mL; in data set [4] (in vivo, PO solution, 30 mg/Kg) it was 15200 ng·h/mL. Besides, the Cmax in data set [3] (IV, 3 mg/kg) was determined as 49600 ng/mL; in data set [3] (IV, 10 mg/kg) it was 91200 ng/mL; in data set [3] (IV, 30 mg/kg), 180000 ng/mL; in data set [3] (oral suspension, 3 mg/kg) it was 30 ng/mL; in data set [3] (oral suspension, 10 mg/kg), 71.3 ng/mL; in data set [3] (oral suspension, 30 mg/kg), 142 ng/mL. In addition, the Tmax in data set [3] (IV, 3 mg/kg) turned out to be 0.083 h; in data set [3] (IV, 10 mg/kg) it was 0.083 h; in data set [3] (IV, 30 mg/kg) it was 0.083 h; in data set [3] (oral suspension, 3 mg/kg), 4 h; in data set [3] (oral suspension, 10 mg/kg), 2.67 h; in data set [3] (oral suspension, 30 mg/kg), 2.67 h. Further, the half-life in data set [3] (IV, 3 mg/kg) was 2.58 h; in data set [3] (IV, 10 mg/kg), 2.98 h; in data set [3] (IV, 30 mg/kg), 2.56 h; in data set [3] (oral suspension, 3 mg/kg), 1.82 h; in data set [3] (oral suspension, 10 mg/kg), 3.41 h; in data set [3] (oral suspension, 30 mg/kg), 2.46 h. The half-life is 2.59 h in data set [4] (in vivo, IV, 3 mg/Kg) and 2.69 h in data set [4] (in vivo, PO solution, 30 mg/Kg). For the same molecule, the solubility in water result in the data set “Aqueous solubility” was “poor solubility in water”. Besides, in the data set “Aqueous solubility” (phosphate buffer or simulated intestinal fluid), the solubility enhancement entry is “greatly enhanced”. For the same molecule, the “C0 or Cmax” value in data set [4] (IV, 3 mg/Kg, C0 extrapolated to T = 0 h) was 63725 ng/mL; in data set [4] (PO solution, 30 mg/Kg) it was 6610 ng/mL. Also, the clearance in data set [4] (in vivo, IV, 3 mg/Kg, read-out: Cl_obs (observed clearance)) came to 0.986 mL/min/kg. Further, the Vd in data set [4] (in vivo, IV, 3 mg/Kg, read-out: Vss_obs) worked out at 0.101 L/kg.
